Several values for one entry are separate records, joined by “and”; a condition that tells them apart may be missing. Identical values can stand only once.
System: 777334-354-R2-J4-PDC tumor spheroids with HUVEC/MSC, viability
Assay: Anticancer human tumor 777334-354-R2-J4-PDC patient-derived pancreatic adenocarcinoma cell line growth inhibition [GQUAD]
Settings: for viability, T/C: stronger effect = lower value
Description: DNA G-quadruplex Stabilizer Agents in Combinations in Complex Spheroids
A high-throughput screen of multi-cell type tumor spheroids was designed to identify active combinations of DNA G-quadruplex stabilizer agents and targeted small molecules. Complex spheroids include a stromal component modeled by human endothelial cells (HUVEC) and fibroblasts modeled by human mesenchymal stem cells (MSCs). The concentration ranges selected for each drug and investigational agent were based upon clinically achievable concentrations if the clinical Cmax of the agent was known.
Compounds. The drugs and investigational agents: pidnarulex (CX-5461; NSC782164), APTO-253 (NSC789042), BRACO-19 (NSC847499), peposertib (NSC802822), ceralasertib (NSC780249), elimusertib (NSC800525), camonsertib (NSC841442), AZD-1390 (NSC803789), olaparib (NSC753686), talazoparib (NSC767125), ART-558 (NSC835418), sotorasib (NSC818433), MRTX-1133 (NSC836407), SN-38 (NSC673596), topotecan (NSC609699), etoposide (NSC141540), doxorubicin (NSC123127), gemcitabine (NSC613327), 5-fluorouracil (NSC19893), paclitaxel (NSC125973), vemurafenib (NSC761431), panobinostat (NSC761190), R-306465 (JNJ-16241199; NSC773264), adavosertib (NSC754352), TP-3654 (NSC805149), carboplatin (NSC241240), KSQ-4279 (NSC840948), and staurosporine (NSC755774) were obtained from the National Cancer Institute (NCI) Developmental Therapeutics Program Chemical Repository (34). The FDA-approved anticancer drug set is available from the NCI Developmental Therapeutics Program. […] The stock solutions were prepared in dimethyl sulfoxide (DMSO, Sigma-Aldrich, St. Louis, MO, cat. D2650) at 800-fold the tested concentration and stored at -70 degrees C prior to their use. All drugs and investigational agents were tested over a range starting from a high concentration at or near the clinical Cmax and decreasing in half-log increments. If the clinical Cmax for an agent had not been determined, the highest concentration tested was 10 microM.
2.3 Cell Culture. All cells were maintained in an incubator at 37 degrees C and 5% CO2 with 95% humidity. The PDC lines were cultured according to standard operating procedures established by the NCI PDMR. All PDCs were thawed and cultured in Matrigel-coated flasks prepared with a working solution of 1X Ham's F-12 nutrient mix, without supplementation (Invitrogen, cat. 11765054), 100 U/mL penicillin-streptomycin (Invitrogen, cat. 15140122), and 2.5% Matrigel (Corning Inc., cat. 354248) for the first three passages. The 857933-349-R-J2-PDC line was cultured in 6C/Colon 1B media, which includes advanced DMEM/F-12 (Thermo Fisher Scientific, cat. 12634028), 10 mM HEPES (Thermo Fisher Scientific, cat. 15630080), 1X GlutaMAX supplement (Thermo Fisher Scientific, cat. 35050061), 0.1 mg/mL primocin (InvivoGen, cat. ant-pm-2), 10% defined fetal bovine serum, heat inactivated (HyClone Laboratories Inc., cat. SH30070.03HI), 50% L-WRN conditioned media (ATCC, cat. CRL-3276), 1.25 mM N-Acetyl-L-cysteine (Sigma-Aldrich, cat. A9165), 10 mM nicotinamide (Sigma-Aldrich, cat. N0636), 1X B-27 supplement (Thermo Fisher Scientific, cat. 17504044), 1X N-2 supplement (Thermo Fisher Scientific, cat. 17502048), 10 microM Y-27632 dihydrochloride (Tocris Bioscience, cat. 1254), and 50 ng/mL human EGF recombinant protein (Thermo Fisher Scientific, cat. PHG0311). The 485176-168-R4-J1-PDC line was cultured in Panc media, which includes all 6C/Colon 1B media components plus 100 ng/mL human FGF-10 (Thermo Fisher Scientific, cat. 100-26), 500 nM SB-431542 (Selleckchem, cat. S1067), and gastrin (Tocris, cat. 3006).
[…]

[1] = curve of first compound, second compound 0.0316 µM
[2] = curve of first compound, second compound 0.1 µM
[3] = curve of first compound, second compound 0.316 µM
[4] = curve of first compound, second compound 1 µM
[5] = curve of first compound, second compound 3.16 µM
[6] = curve of first compound, second compound 10 µM
[7] = second compound 0.0316 µM, first compound 0.0316 µM
[8] = second compound 0.0316 µM, first compound 0.1 µM
[9] = second compound 0.0316 µM, first compound 0.316 µM
[10] = second compound 0.0316 µM, first compound 1 µM
[11] = second compound 0.0316 µM, first compound 3.16 µM
[12] = second compound 0.0316 µM, first compound 10 µM
[13] = second compound 0.1 µM, first compound 0.0316 µM
[14] = second compound 0.1 µM, first compound 0.1 µM
[15] = second compound 0.1 µM, first compound 0.316 µM
[16] = second compound 0.1 µM, first compound 1 µM
[17] = second compound 0.1 µM, first compound 3.16 µM
[18] = second compound 0.1 µM, first compound 10 µM
[19] = second compound 0.316 µM, first compound 0.0316 µM
[20] = second compound 0.316 µM, first compound 0.1 µM
[21] = second compound 0.316 µM, first compound 0.316 µM
[22] = second compound 0.316 µM, first compound 1 µM
[23] = second compound 0.316 µM, first compound 3.16 µM
[24] = second compound 0.316 µM, first compound 10 µM
[25] = second compound 1 µM, first compound 0.0316 µM
[26] = second compound 1 µM, first compound 0.1 µM
[27] = second compound 1 µM, first compound 0.316 µM
[28] = second compound 1 µM, first compound 1 µM
[29] = second compound 1 µM, first compound 3.16 µM
[30] = second compound 1 µM, first compound 10 µM
[31] = second compound 3.16 µM, first compound 0.0316 µM
[32] = second compound 3.16 µM, first compound 0.1 µM
[33] = second compound 3.16 µM, first compound 0.316 µM
[34] = second compound 3.16 µM, first compound 1 µM
[35] = second compound 3.16 µM, first compound 3.16 µM
[36] = second compound 3.16 µM, first compound 10 µM
[37] = second compound 10 µM, first compound 0.0316 µM
[38] = second compound 10 µM, first compound 0.1 µM
[39] = second compound 10 µM, first compound 0.316 µM
[40] = second compound 10 µM, first compound 1 µM
[41] = second compound 10 µM, first compound 3.16 µM
[42] = second compound 10 µM, first compound 10 µM
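Also: spheroids exposed to compounds for 7 days before readout.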

In the case of `C#Cc1c(F)ccc2cc(O)cc(-c3ncc4c(N5CC6CCC(C5)N6)nc(OCC56CCCN5CC(F)C6)nc4c3F)c12` (stereo not given) + CN(C)c1ccc(Nc2c3ccc(NC(=O)CCN4CCCC4)cc3nc3cc(NC(=O)CCN4CCCC4)ccc23)cc1, the IC50 [1] is reported as 33.7 nM, the IC50 [2] is reported as 36.1 nM and the IC50 [3] is reported as less than 31.6 nM. For the same compound, the IC50 [4] was less than 31.6 nM, the IC50 [5] was less than 31.6 nM and the IC50 [6] was less than 31.6 nM. It also gave a viability, T/C [7] of 51%, a viability, T/C [8] of 38.9% and a viability, T/C [9] of 29.8%. It also gave a viability, T/C [10] of 31.2%, a viability, T/C [11] of 30.1% and a viability, T/C [12] of 22.6%. The viability, T/C [13] was 52.3%, the viability, T/C [14] was 38.7% and the viability, T/C [15] was 34.3%. For the same compound, the viability, T/C [16] was 28.4%, the viability, T/C [17] was 29.1% and the viability, T/C [18] was 21.5%. The viability, T/C [19] was 46.9%, the viability, T/C [20] was 35% and the viability, T/C [21] was 36%. The viability, T/C [22] was 29%, the viability, T/C [23] was 26.5% and the viability, T/C [24] was 22.4%. It also gave a viability, T/C [25] of 37.1%, a viability, T/C [26] of 38% and a viability, T/C [27] of 31.4%. The viability, T/C [28] was 27.8%, the viability, T/C [29] was 25.4% and the viability, T/C [30] was 23.7%. For the same compound, the viability, T/C [31] was 38.6%, the viability, T/C [32] was 34.4% and the viability, T/C [33] was 32%. For the same compound, the viability, T/C [34] was 24.2%, the viability, T/C [35] was 22.6% and the viability, T/C [36] was 17.8%. For the same compound, the viability, T/C [37] was 36.3%, the viability, T/C [38] was 32.3% and the viability, T/C [39] was 27.5%. It also gave a viability, T/C [40] of 19.6%, a viability, T/C [41] of 15.2% and a viability, T/C [42] of 10.3%.

For `COc1ccc([C@@H](O)c2cc(-c3ncnc4cc(N5CCOCC5)ccc34)c(F)cc2Cl)nn1`, the viability, T/C (compound 0.0316 µM) was 88.9% and 85.9% and 100%, the viability, T/C (compound 0.1 µM) was 90.6% and 89.8% and 104% and the viability, T/C (compound 0.316 µM) was 94.2% and 88.9% and 91.9%. The viability, T/C (compound 1 µM) was 76.1% and 72.6% and 86.3%, the viability, T/C (compound 3.16 µM) was 55.1% and 55.7% and 51.5% and the viability, T/C (compound 10 µM) was 30.2% and 26.8% and 30.7%. For the same compound, the IC50 (curve of compound) was 3860 nM and 3820 nM and 3590 nM.

In the case of `Cc1cccc(N(C)C(=O)C2C(O)CCN2c2nc(C)cc(C(F)(F)F)c2C#N)c1` (stereo not given) + Cc1cnc(CNC(=O)c2c(=O)c3ccc(N4CCCN(C)CC4)nc3n3c2sc2ccccc23)cn1, the IC50 [1] is reported as greater than 10000 nM, the IC50 [2] is reported as greater than 10000 nM and the IC50 [3] is reported as greater than 10000 nM. For the same compound, the IC50 [4] was greater than 10000 nM, the IC50 [5] was greater than 10000 nM and the IC50 [6] was greater than 10000 nM. The viability, T/C [7] was 103%, the viability, T/C [8] was 91.3% and the viability, T/C [9] was 107%. For the same compound, the viability, T/C [10] was 94.5%, the viability, T/C [11] was 105% and the viability, T/C [12] was 100%. For the same compound, the viability, T/C [13] was 108%, the viability, T/C [14] was 92.2% and the viability, T/C [15] was 93.6%. For the same compound, the viability, T/C [16] was 83.5%, the viability, T/C [17] was 95% and the viability, T/C [18] was 85%. The viability, T/C [19] was 82.6%, the viability, T/C [20] was 84.9% and the viability, T/C [21] was 78.1%. For the same compound, the viability, T/C [22] was 84.8%, the viability, T/C [23] was 80.7% and the viability, T/C [24] was 91.7%. For the same compound, the viability, T/C [25] was 65.3%, the viability, T/C [26] was 73% and the viability, T/C [27] was 79.5%. For the same compound, the viability, T/C [28] was 75.8%, the viability, T/C [29] was 71.2% and the viability, T/C [30] was 65.5%. For the same compound, the viability, T/C [31] was 59.3%, the viability, T/C [32] was 67% and the viability, T/C [33] was 58.4%. It also gave a viability, T/C [34] of 62.3%, a viability, T/C [35] of 67.2% and a viability, T/C [36] of 60.6%. For the same compound, the viability, T/C [37] was 63%, the viability, T/C [38] was 63.2% and the viability, T/C [39] was 59.6%. For the same compound, the viability, T/C [40] was 64.5%, the viability, T/C [41] was 64.5% and the viability, T/C [42] was 62.7%.

For `CN(C)c1ccc(Nc2c3ccc(NC(=O)CCN4CCCC4)cc3nc3cc(NC(=O)CCN4CCCC4)ccc23)cc1`, the viability, T/C (compound 0.0316 µM) was 98.1% [middle of 12 runs], the viability, T/C (compound 0.1 µM) was 101% [middle of 12 runs] and the viability, T/C (compound 0.316 µM) was 94.1% [middle of 12 runs]. For the same compound, the viability, T/C (compound 1 µM) was 94.9% [middle of 12 runs], the viability, T/C (compound 3.16 µM) was 90.3% [middle of 12 runs] and the viability, T/C (compound 10 µM) was 81.3% [middle of 12 runs]. The IC50 (compound alone, run of 03/26/2024) was greater than 10000 nM.

With `COc1cccc2c1C(=O)c1c(O)c3c(c(O)c1C2=O)CC(O)(C(=O)CO)CC3OC1CC(N)C(O)C(C)O1` (stereo not given) the viability, T/C (compound 0.0316 µM) was 95.8% and 98.8% and 102%, the viability, T/C (compound 0.1 µM) was 86.7% and 89.4% and 89.9% and the viability, T/C (compound 0.316 µM) was 69% and 68.8% and 73.9%. For the same compound, the viability, T/C (compound 1 µM) was 42% and 47.4% and 37.8%, the viability, T/C (compound 3.16 µM) was 22.2% and 23.6% and 27.6% and the viability, T/C (compound 10 µM) was 12.6% and 13% and 11.9%. The IC50 (curve of compound) was 713 nM and 819 nM and 733 nM.

From PubChem BioAssay AID2060499 (Molecular Pharmacology Branch, DTP, NCI, 2025)
